Measurements taken from ChEMBL document CHEMBL1201862, “PubChem BioAssay data set” (2004).
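Step 1: Grow cells in 96-well plates. Step 2: Expose to compound for 48 hours at 5 concentrations. Step 3: Interpolate endpoints linearly; if unreached, use highest concentration. At the GI50, growth is halved.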 The source made the active and inactive calls. No stated cut-off is given here; in the data, active = GI50 up to about 1.1 µM and inactive = higher.

Tests used:
Assay in all cases: DTP human tumour cell line panel, 48 h
DU-145 = test system: DU-145
T47D = test system: T47D
BT-549 = test system: BT-549
MDA-MB-435 = test system: MDA-MB-435
MDA-N = test system: MDA-N

| SMILES | GI50 (DU-145) | GI50 (T47D) | GI50 (BT-549) | GI50 (MDA-MB-435) | GI50 (MDA-N) |
| --- | --- | --- | --- | --- | --- |
| C=C1C[C@@H]2CC[C@@]34CC5O[C@H]6C(O[C@H]7CC[C@H](CC(=O)O[C@@H]8[C@@H](C)[C@@H]9O[C@@H]%10C[C@]%11(C[C@@H]%12O[C@]%13(C[C@H](C)[C@@H]%14O[C@@H]%15CC(C(COC(C)=O)OC(C)=O)O[C@@H]%15C[C@@H]%14O%13)C[C@H](C)[C@@H]%12O%11)O[C@@H]%10C[C@@H]9O[C@H]8CC8O[C@@H](CC[C@@H]1O2)C[C@@H](C)C8(O)CO)O[C@@H]7[C@@H]6O3)[C@H]5O4 (some centres undefined) | 0.375 µM (active) | > 0.451 µM (active) | 0.0908 µM (active) | 0.0826 µM (active) |  |
| Cc1ccc(/C=N/n2c(Cc3ccccc3)n[nH]c2=O)cc1 | > 100 µM (inactive) | > 100 µM (inactive) | 19.8 µM (inactive) |  | > 100 µM (inactive) |
| CCc1cc(Cc2cc(CC)c(NC(=O)C(=O)CC(=O)c3sc(-c4cccnc4)nc3C)c(CC)c2)cc(CC)c1NC(=O)C(=O)CC(=O)c1sc(-c2cccnc2)nc1C | > 100 µM (inactive) | > 100 µM (inactive) | > 100 µM (inactive) | > 100 µM (inactive) | > 100 µM (inactive) |
| N=C(N)N/N=C/c1c(-c2ccc(Cl)c([N+](=O)[O-])c2)nc2sc(Cl)cn12 | 1.95 µM (inactive) | 1.23 µM (inactive) | 1.69 µM (inactive) | 2.25 µM (inactive) |  |
| O=c1c2cc([N+](=O)[O-])ccc2nc2n1CCCCC2 | > 100 µM (inactive) | > 100 µM (inactive) | 78 µM (inactive) | > 100 µM (inactive) | > 100 µM (inactive) |
| O=C1CC(C(COCc2ccccc2)OCc2ccccc2)CC(=O)N1 (centres undefined) | > 100 µM (inactive) | 86.3 µM (inactive) | 45 µM (inactive) | > 100 µM (inactive) | > 100 µM (inactive) |
| CC(C)(C)OC(=O)N1CCC(NC(=O)NC2CCN(C(=O)OC(C)(C)C)CC2)CC1 |  |  | 0.118 µM (active) | > 100 µM (inactive) | > 100 µM (inactive) |
| Cc1ccc(-c2cc(=O)c(=O)[nH][nH]2)cc1 | > 100 µM (inactive) | > 100 µM (inactive) | > 100 µM (inactive) | > 100 µM (inactive) | > 100 µM (inactive) |
| C/C(=N/O)c1cccc(Nc2nc3ccccc3c3[nH]c4ccccc4c23)c1 | 1.74 µM (inactive) | 1.52 µM (inactive) | 12.8 µM (inactive) | 2.5 µM (inactive) | 1.82 µM (inactive) |
| CC1(C)OCC=CCO1 | > 100 µM (inactive) | > 100 µM (inactive) | > 100 µM (inactive) | > 100 µM (inactive) | > 100 µM (inactive) |
| COC(=O)C(CCCCNC(=O)CNC(=O)OCc1ccccc1)NC(=O)C(CCCCNC(=O)CNC(=O)OCc1ccccc1)NC(=O)OCc1ccccc1 (centres undefined) | 98.4 µM (inactive) | 20.3 µM (inactive) | 20.7 µM (inactive) | 19.8 µM (inactive) | 51.6 µM (inactive) |
| N#Cc1c2c(c(Nc3ccc(F)cc3)n3c1nc1ccccc13)CCCC2 | > 48.5 µM (inactive) | 6.64 µM (inactive) | > 91.6 µM (inactive) | > 24.9 µM (inactive) | > 28.6 µM (inactive) |
| CC(C)n1c(=O)n(-c2ccccc2)n(C(C)(C)C)c1=O |  |  | > 100 µM (inactive) |  | > 100 µM (inactive) |
| c1ccc(C2=C(c3ccccc3)Sc3nnc(CCCCCCCCc4nnc5n4NC(c4ccccc4)=C(c4ccccc4)S5)n3N2)cc1 | > 100 µM (inactive) | 24.7 µM (inactive) | 46.6 µM (inactive) | 34.9 µM (inactive) |  |
| CC(C)(C)OC(=O)NCCC(=O)NC1(c2cc3ccccc3s2)CCCCC1 | 16.7 µM (inactive) | 8.05 µM (inactive) | 16.9 µM (inactive) | 17.3 µM (inactive) | 17.6 µM (inactive) |
| Cc1ccc(/C=C/C(=O)c2cc(CN(C)C)c(O)c(CN(C)C)c2)cc1 | 30.2 µM (inactive) | 18 µM (inactive) | 18.3 µM (inactive) | 21.4 µM (inactive) | 15.2 µM (inactive) |
| COc1cc(C2c3cc4c(cc3[C@@H](Nc3ccc(F)cc3)C3COC[C@H]23)OCO4)cc(OC)c1O (some centres undefined) |  | 1.74 µM (inactive) |  | 6.15 µM (inactive) | 7.66 µM (inactive) |
| CC(C)(C)[Si](C)(C)O[C@@H](C(=O)OC1C=CCCC1)[C@@H](NC(=O)c1ccccc1)c1ccccc1 (some centres undefined) | 50.4 µM (inactive) | 20 µM (inactive) | 51.1 µM (inactive) | 29.3 µM (inactive) | 31 µM (inactive) |
| COC(=O)C1CCC(=O)N1C(c1ccc(OC)cc1)c1ccc2c(c1)OCO2 (centres undefined) | > 100 µM (inactive) | > 100 µM (inactive) | 89.7 µM (inactive) | 7.01 µM (inactive) | 7.46 µM (inactive) |
| O=C1NC2NC3NC(=O)NC3NC2N1 (centres undefined) | > 100 µM (inactive) |  | > 100 µM (inactive) | > 100 µM (inactive) | > 100 µM (inactive) |
| O=C1/C(=C/c2ccc(Cl)cc2)Sc2scc(-c3cccc([N+](=O)[O-])c3)[n+]21 | 7.11 µM (inactive) | 3.5 µM (inactive) | 2.2 µM (inactive) | 3.4 µM (inactive) | 3.36 µM (inactive) |
| COC(=O)/C(C#N)=C(\N)c1c(C)c2ccccc2oc1=N | > 100 µM (inactive) | > 100 µM (inactive) | 64.6 µM (inactive) | > 100 µM (inactive) | > 100 µM (inactive) |
| O=C1OCc2c1cc1cc3c(cc1c2-c1ccc2c(c1)OCO2)OCO3.O=C1OCc2cc3cc4c(cc3c(-c3ccc5c(c3)OCO5)c21)OCO4 | 11.3 µM (inactive) | 24.5 µM (inactive) | 19 µM (inactive) | 1.87 µM (inactive) | 1.41 µM (inactive) |

| SMILES | GI50 (DU-145) | GI50 (T47D) | GI50 (BT-549) | GI50 (MDA-MB-435) | GI50 (MDA-N) |
| --- | --- | --- | --- | --- | --- |
| CC12C(=O)OC(=O)C1(C)C1C=CC2O1 (centres undefined) | > 100 µM (inactive) |  | > 100 µM (inactive) | > 100 µM (inactive) | > 100 µM (inactive) |
| COc1cc(/C=C2\C[C@H]3[C@@H]4CCc5cc(O)ccc5[C@H]4CC[C@]3(C)C2=O)cc(OC)c1OC | 3.69 µM (inactive) | 13.5 µM (inactive) | 18.9 µM (inactive) | 16.9 µM (inactive) | 15.6 µM (inactive) |
| O=C1NC(=S)NC(=O)C1=Cc1ccc(-c2ccccc2)cc1 | > 100 µM (inactive) | > 100 µM (inactive) | > 100 µM (inactive) | > 100 µM (inactive) | > 100 µM (inactive) |
| COc1cc2c(cc1OC)C1=C(C=O)c3ccc(OC)c(OC)c3C(O)N1CC2 (centres undefined) | 28.1 µM (inactive) | 21.1 µM (inactive) | 22.2 µM (inactive) | 32.2 µM (inactive) | 31.5 µM (inactive) |
| Cc1n[nH]c(=O)n1N=C(c1ccccc1)c1ccccc1 | > 100 µM (inactive) |  | > 100 µM (inactive) | > 100 µM (inactive) | > 100 µM (inactive) |
| Cn1c2ccccc2c2c3c(c4c5ccccc5n(C)c4c21)C(=O)c1ccccc1C3=O | > 100 µM (inactive) | 13.2 µM (inactive) | 20.4 µM (inactive) | 51.3 µM (inactive) | 72.8 µM (inactive) |
| C=C(CBr)CCCOCc1ccccc1 | 39.1 µM (inactive) | 37.8 µM (inactive) | 15 µM (inactive) | 28.4 µM (inactive) | > 10 µM (inactive) |
| COc1ccc(NC(C)=O)cc1N1C(=O)/C(=C\c2cc(OC)c(OC)c(OC)c2)S(=O)(=O)C1c1ccccc1 (centres undefined) | 75 µM (inactive) | 38.3 µM (inactive) | > 100 µM (inactive) | 39.7 µM (inactive) | 34.1 µM (inactive) |
| O=C(CC(O)c1cccnc1)CC(O)c1cccnc1 (centres undefined) | 32.2 µM (inactive) | 26.5 µM (inactive) | 11.7 µM (inactive) | 16.4 µM (inactive) | 7.26 µM (inactive) |
| CN(C)CC1CN=C(N)O1 (centres undefined) | > 100 µM (inactive) |  |  | > 100 µM (inactive) | > 100 µM (inactive) |
| O=c1oc2ccc([N+](=O)[O-])cc2cc1-c1csc(-c2ccccc2)n1 | > 100 µM (inactive) | > 100 µM (inactive) | > 100 µM (inactive) | > 100 µM (inactive) | > 100 µM (inactive) |
| CC[C@@H]1ON(C)[C@H]2CN(C)C(=O)[C@@H]12 | > 100 µM (inactive) | > 100 µM (inactive) |  | > 100 µM (inactive) | > 100 µM (inactive) |
| CCOC(=O)c1cc(-c2ccc(OC)c(OC)c2)cn1C | > 10 µM (inactive) | > 10 µM (inactive) | > 10 µM (inactive) | > 10 µM (inactive) | > 10 µM (inactive) |
| CC(C)(C)[Si](C)(C)OC1(CCc2ccccc2OS(=O)(=O)C(F)(F)F)CCCC=C1COCc1ccccc1 (centres undefined) | > 100 µM (inactive) | 6.35 µM (inactive) | > 100 µM (inactive) | > 100 µM (inactive) |  |
| CC1(CO)OC(n2cnc3cncnc32)CC1O (centres undefined) | > 100 µM (inactive) | > 100 µM (inactive) | > 100 µM (inactive) | > 100 µM (inactive) | > 100 µM (inactive) |
| COC1(OC)C2(Cl)C(Cl)=C(Cl)C1(Cl)C1COCC12 (centres undefined) | 13.4 µM (inactive) | > 100 µM (inactive) | > 100 µM (inactive) | 30.8 µM (inactive) | > 20.4 µM (inactive) |
| CC(=O)Nc1cc2c3c(c1)CCCN3CCC2 | > 100 µM (inactive) | 44.6 µM (inactive) | > 100 µM (inactive) | > 100 µM (inactive) | > 100 µM (inactive) |
| CC(C)/C(Cl)=N\OC(=O)Nc1ccc(C#N)cc1 | 18 µM (inactive) | 5.77 µM (inactive) | 13.7 µM (inactive) | 8.04 µM (inactive) | 6.01 µM (inactive) |
| COc1ccc2c(c1)c(=Cc1ccc(N(C)C)cc1)c1cc(-c3ccccc3)[n+](C)n12 | 0.479 µM (active) |  | 0.0182 µM (active) | 0.369 µM (active) | 0.378 µM (active) |
| CC1(C)CCSC(/C=C/c2ccccc2)=N1 | 35.8 µM (inactive) |  | 7.14 µM (inactive) | 17.9 µM (inactive) | 12.4 µM (inactive) |
| S=C1C=C(c2ccccc2)Sc2ccccc2N1 | > 100 µM (inactive) | > 100 µM (inactive) | > 100 µM (inactive) |  | > 100 µM (inactive) |
| Cc1ccc(NC(=O)c2cc3ccccc3c(/N=N/c3cc(S(=O)(=O)O)ccc3O)c2O)c(C)c1 | 19.2 µM (inactive) | 24.7 µM (inactive) | 17.8 µM (inactive) | 19.7 µM (inactive) | 32.2 µM (inactive) |
